According to patent US10294229B2, “Heteroaryl substituted aminopyridine compounds” (BRISTOL-MYERS SQUIBB COMPANY, priority 2015, dated 2019):

How the values were obtained:
[1] = test system: Human whole blood stimulated with a TLR2 agonist (lipoteichoic acid), IL-6 levels; assay: IRAK4 Whole Blood Assay; assay type: cell-based; conditions: lipoteichoic acid 10 μg/mL
Method: Human whole blood containing the anti-coagulant ACD-A was plated in 384-well plate (25 μL/well) and incubated with compounds for 60 minutes at 37° C. in a 5% CO2 incubator. The blood was stimulated with a TLR2 agonist, 10 μg/mL final concentration of lipoteichoic acid (Invivogen, San Diego, Calif.) in 25 μL RPMI (Gibco) for 5 hours in a 5% CO2 incubator. At the end of the incubation, plates were centrifuged at 2300 rpm for 5 minutes. Supernatants were harvested and analyzed for IL-6 levels by Flow Cytometry beads assay (BD Biosciences, San Jose, Calif.).

IRAK4 = IRAK4 (Homo sapiens (Human), UniProt Q9NWZ3); assay: IRAK4 Inhibition Assay; assay type: biochemical; conditions: ATP 500 μM; IRAK4 0.6 nM
Procedure, shortened: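 Enzyme 0.6 nM, ATP 500 μM, FL-peptide 1.5 μM, DMSO 1.6%; HEPES pH 7.2/MgCl2/Brij 35/DTT buffer. RT, 60 min, EDTA stop. Mobility-shift product/substrate ratio; % inhib vs no-enzyme and vehicle controls.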

Sequence of IRAK4 (Q9NWZ3 whole entry, species assumed): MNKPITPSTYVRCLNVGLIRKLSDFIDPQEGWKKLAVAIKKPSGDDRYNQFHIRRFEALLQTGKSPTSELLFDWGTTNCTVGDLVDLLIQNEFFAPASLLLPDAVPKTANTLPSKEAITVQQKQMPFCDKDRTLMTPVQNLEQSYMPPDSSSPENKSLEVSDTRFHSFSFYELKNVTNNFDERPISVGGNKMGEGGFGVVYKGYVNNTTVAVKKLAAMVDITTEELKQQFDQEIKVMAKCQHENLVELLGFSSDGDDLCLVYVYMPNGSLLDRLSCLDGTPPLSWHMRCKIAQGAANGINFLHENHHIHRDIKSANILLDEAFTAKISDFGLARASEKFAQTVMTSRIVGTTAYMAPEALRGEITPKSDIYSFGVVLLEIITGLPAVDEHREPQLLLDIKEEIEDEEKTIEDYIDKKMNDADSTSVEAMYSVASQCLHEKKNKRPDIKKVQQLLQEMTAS

Row | SMILES | EC50 ([1]; Homo sapiens) [nM] | IC50 (IRAK4) [nM] | EC50 [1] [nM]
1 | CC(C)Nc1cc(-n2ncc3cc(C#N)cnc32)ncc1-c1cn(CC2CCC2)cn1 [Example 233, 1-(5-(1-(cyclobutylmethyl)-1H-imidazol-4-yl)-4-(isopropylamino)pyridin-2-yl)-1H-pyrazolo[3,4-b]pyridine-5-carbonitrile] | 530 | 4 | –
2 | CC(C)Nc1cc(-n2ncc3cc(C#N)cnc32)ncc1-c1cc(C2CCOCC2)no1 [Example 418, 1-(4-(isopropylamino)-5-(3-(tetrahydro-2H-pyran-4-yl)isoxazol-5-yl)pyridin-2-yl)-1H-pyrazolo[3,4-b]pyridine-5-carbonitrile] | 490 | 3 | –
3 | CC(C)Nc1cc(-n2ncc3cc(C#N)cnc32)ncc1-c1cn(C2CCCCC2)nn1 [Example 17, 1-(5-(1-cyclohexyl-1H-1,2,3-triazol-4-yl)-4-(isopropylamino)pyridin-2-yl)-1H-pyrazolo[3,4-b]pyridine-5-carbonitrile] | 1970 | 5 | –
4 | CC(C)Nc1cc(-n2ncc3cc(C#N)cnc32)ncc1-c1cn(C2CN(C(=O)C3CC3)C2)nn1 [Example 145, 1-(5-(1-(1-(cyclopropanecarbonyl)azetidin-3-yl)-1H-1,2,3-triazol-4-yl)-4-(isopropylamino)pyridin-2-yl)-1H-pyrazolo[3,4-b]pyridine-5-carbonitrile] | 740 | 4 | –
5 | CC(=O)N1CCN(C(=O)Cn2cc(-c3cnc(-n4ncc5cc(C#N)cnc54)cc3NC(C)C)nn2)CC1 [Example 194, 1-(5-(1-(2-(4-acetylpiperazin-1-yl)-2-oxoethyl)-1H-1,2,3-triazol-4-yl)-4-(isopropylamino)pyridin-2-yl)-1H-pyrazolo[3,4-b]pyridine-5-carbonitrile] | 620 | 6 | –
6 | CC(C)Nc1cc(-n2ncc3cc(C#N)cnc32)ncc1-c1cc(CCC(C)(C)O)no1 [Example 426, 1-(5-(3-(3-hydroxy-3-methylbutyl)isoxazol-5-yl)-4-(isopropylamino)pyridin-2-yl)-1H-pyrazolo[3,4-b]pyridine-5-carbonitrile] | 340 | 1 | –
7 | COC(=O)N1CCC[C@@H](c2cc(-c3cnc(-n4ncc5cc(C#N)cnc54)cc3NC(C)C)on2)C1 [Example 408, methyl (R)-3-(5-(6-(5-cyano-1H-pyrazolo[3,4-b]pyridin-1-yl)-4-(isopropylamino)pyridin-3-yl)isoxazol-3-yl)piperidine-1-carboxylate] | 490 | 2 | –
8 | CC(C)Nc1cc(-n2ncc3cc(C#N)cnc32)ncc1-c1cn(C2CN(C(=O)c3ccccc3)C2)nn1 [Example 143, 1-(5-(1-(1-benzoylazetidin-3-yl)-1H-1,2,3-triazol-4-yl)-4-(isopropylamino)pyridin-2-yl)-1H-pyrazolo[3,4-b]pyridine-5-carbonitrile] | 970 | 8 | –
9 | CC(C)Nc1cc(-n2ncc3cc(C#N)cnc32)ncc1-c1cn(CCCN2CCCC2)nn1 [Example 127, 1-(4-(isopropylamino)-5-(1-(3-(pyrrolidin-1-yl)propyl)-1H-1,2,3-triazol-4-yl)pyridin-2-yl)-1H-pyrazolo[3,4-b]pyridine-5-carbonitrile] | 2950 | 10 | –
10 | CC(C)Nc1cc(-n2ncc3cc(C#N)cnc32)ncc1-c1cn([C@H](CO)c2ccccc2)nn1 [Example 87, (S)-1-(5-(1-(2-hydroxy-1-phenylethyl)-1H-1,2,3-triazol-4-yl)-4-(isopropylamino)pyridin-2-yl)-1H-pyrazolo[3,4-b]pyridine-5-carbonitrile] | 4530 | 9 | –
11 | CC(C)Nc1cc(-n2ncc3cc(C#N)cnc32)ncc1-c1cn([C@H]2CCN(S(C)(=O)=O)C[C@H]2OS(C)(=O)=O)nn1 [Example 182, (3R,4S)-4-(4-(6-(5-cyano-1H-pyrazolo[3,4-b]pyridin-1-yl)-4-(isopropylamino)pyridin-3-yl)-1H-1,2,3-triazol-1-yl)-1-(methylsulfonyl)piperidin-3-yl methanesulfonate] | 750 | 5 | –
12 | CC(C)Nc1cc(-n2ncc3cc(C#N)cnc32)ncc1-c1cc([C@@H]2CCCCN2S(C)(=O)=O)on1 [Example 432, (S)-1-(4-(isopropylamino)-5-(5-(1-(methylsulfonyl)piperidin-2-yl)isoxazol-3-yl)pyridin-2-yl)-1H-pyrazolo[3,4-b]pyridine-5-carbonitrile] | 370 | 1 | –
13 | CC(C)Nc1cc(-n2ncc3cc(C#N)cnc32)ncc1-c1cc(CCC(C)(C)O)on1 [Example 429, 1-(5-(5-(3-hydroxy-3-methylbutyl)isoxazol-3-yl)-4-(isopropylamino)pyridin-2-yl)-1H-pyrazolo[3,4-b]pyridine-5-carbonitrile] | 450 | 2 | –
14 | COC(=O)N1CC(n2cc(-c3cnc(-n4ncc5cc(C#N)cnc54)cc3NC(C)C)nn2)C1 [Example 142, methyl 3-(4-(6-(5-cyano-1H-pyrazolo[3,4-b]pyridin-1-yl)-4-(isopropylamino)pyridin-3-yl)-1H-1,2,3-triazol-1-yl)azetidine-1-carboxylate] | 560 | 5 | –

The next lines start with the values.

Row | EC50 ([1]; Homo sapiens) [nM] | IC50 (IRAK4) [nM] | EC50 [1] [nM] | SMILES
15 | 1160 | 6 | – | CC(C)Nc1cc(-n2ncc3cc(C#N)cnc32)ncc1-c1cn(CCCN)nn1 [Example 171, 1-(5-(1-(3-aminopropyl)-1H-1,2,3-triazol-4-yl)-4-(isopropylamino)pyridin-2-yl)-1H-pyrazolo[3,4-b]pyridine-5-carbonitrile]
16 | – | 11 | 430 | CC(F)Cc1cn(-c2cnc(-n3ncc4cc(C#N)cnc43)cc2NC2CC2)nn1 (stereo not shown) [Example 353, 1-(4-(cyclopropylamino)-5-(4-(2-fluoropropyl)-1H-1,2,3-triazol-1-yl)pyridin-2-yl)-1H-pyrazolo[3,4-b]pyridine-5-carbonitrile]
17 | 630 | 7 | – | CC(C)Nc1cc(-n2ncc3cc(C#N)cnc32)ncc1-c1cn(CCCF)nn1 [Example 44, 1-(5-(1-(3-fluoropropyl)-1H-1,2,3-triazol-4-yl)-4-(isopropylamino)pyridin-2-yl)-1H-pyrazolo [3,4-b]pyridine-5-carbonitrile]
18 | 250 | 2 | – | CC(C)(O)CCc1cn(-c2cnc(-n3ncc4cc(C#N)cnc43)cc2NC(C)(C)CO)nn1 [Example 381, 1-(4-((1-hydroxy-2-methylpropan-2-yl)amino)-5-(4-(3-hydroxy-3-methylbutyl)-1H-1,2,3-triazol-1-yl)pyridin-2-yl)-1H-pyrazolo[3,4-b]pyridine-5-carbonitrile]
19 | 6400 | 17 | – | CCCc1cn(-c2cnc(-n3cnc4cc(C#N)cnc43)cc2N[C@@H](C)CO)nn1 [Example 285, (S)-3-(4-((1-hydroxypropan-2-yl)amino)-5-(4-propyl-1H-1,2,3-triazol-1-yl)pyridin-2-yl)-3H-imidazo[4,5-b]pyridine-6-carbonitrile]
20 | 590 | 10 | – | CC(C)Nc1cc(-n2ncc3cc(C#N)cnc32)ncc1-c1cn(CC2CC2)cn1 [Example 229, 1-(5-(1-(cyclopropylmethyl)-1H-imidazol-4-yl)-4-(isopropylamino)pyridin-2-yl)-1H-pyrazolo[3,4-b]pyridine-5-carbonitrile]
21 | 1910 | 6 | – | CC(C)Nc1cc(-n2ncc3cc(C#N)cnc32)ncc1-c1cn(CCCO)nn1 [Example 28, 1-(5-(1-(3-hydroxypropyl)-1H-1,2,3-triazol-4-yl)-4-(isopropylamino)pyridin-2-yl)-1H-pyrazolo [3,4-b]pyridine-5-carbonitrile]
22 | 600 | 8 | – | CC(C)Nc1cc(-n2ncc3cc(C#N)cnc32)ncc1-c1cn(C)nn1 [Example 164, 1-(4-(isopropylamino)-5-(1-methyl-1H-1,2,3-triazol-4-yl)pyridin-2-yl)-1H-pyrazolo[3,4-b]pyridine-5-carbonitrile]
23 | 420 | 9 | – | CC(C)Nc1cc(-n2ncc3cc(C#N)cnc32)ncc1-c1cn(C[C@H](C)O)nn1 [Example 65, (S)-1-(5-(1-(2-hydroxypropyl)-1H-1,2,3-triazol-4-yl)-4-(isopropylamino)pyridin-2-yl)-1H-pyrazolo[3,4-b]pyridine-5-carbonitrile]
24 | 3410 | 18 | – | CCN(CC)Cc1cn(-c2cnc(-n3ncc4cc(C#N)cnc43)cc2NC(C)C)nn1 [Example 324, 1-(5-(4-((diethylamino)methyl)-1H-1,2,3-triazol-1-yl)-4-(isopropylamino)pyridin-2-yl)-1H-pyrazolo[3,4-b]pyridine-5-carbonitrile]
25 | 2050 | 9 | – | CC(C)Nc1cc(-n2ncc3cc(C#N)cnc32)ncc1-n1cc(CS(=O)(=O)c2ccccc2)nn1 [Example 332, 1-(4-(isopropylamino)-5-(4-((phenylsulfonyl)methyl)-1H-1,2,3-triazol-1-yl)pyridin-2-yl)-1H-pyrazolo[3,4-b]pyridine-5-carbonitrile]
26 | 730 | 2 | – | CCN1CC(n2cc(-c3cnc(-n4ncc5cc(C#N)cnc54)cc3NC(C)C)nn2)C1 [Example 149, 1-(5-(1-(1-ethylazetidin-3-yl)-1H-1,2,3-triazol-4-yl)-4-(isopropylamino)pyridin-2-yl)-1H-pyrazolo[3,4-b]pyridine-5-carbonitrile]
